Test results published in article PMC7830115, “Design, Synthesis, Molecular Docking, and Tumor Resistance Reversal Activity Evaluation of Matrine Derivative with Thiophene Structure” (Molecules, 2021).

Legend:
[1] = tested on: CNE2; assay: MTT cytotoxicity assay, CNE2; format: cell-based; details: mean ± SD
Protocol: (§1) Prior to determining the combined inhibitory effects against NPC CDDP-resistance cells, the cytotoxicity effects of these 8 derivatives were evaluated against three NPC cell lines (CNE2, HONE1, and HK-1) and CDDP resistance cell line (CNE2/CDDP) by using MTT (3-(4,5-dimethyl-2-thiazolyl)-2,5-diphenyl-2-H-tetrazolium bromide) assays. […] Moreover, a liver normal cell LO2 was involved to evaluate the selectivity of these 8 compounds by using MTT assays.
(§2) Nasopharyngeal carcinoma cells (CNE2, HONE1, and CNE2/CDDP) were purchased from Shanghai Aulu Biological Technologh Co., Ltd. (Shanghai, China). HK-1 cell was purchased from Shanghai Shunran Biological Technologh Co., Ltd. CNE2, HONE1, and HK-1 were cultured in DMEM medium supplemented with 10% fetal bovine serum, 1% penicillin-streptomycin. CDDP-resistant NPC cell CNE2/CDDP was cultured in DMEM medium supplemented with CDDP to sustain its drug resistance. Cell viability was detected using the MTT assay. All the 8 derivatives were resolved with DMSO to make a storage solution at 1 M, and CDDP was resolved with phosphate buffer saline (PBS) to make a storage solution at 100 mM. The maximum concentrations of these 8 derivatives and CDDP used in MTT assays were set as 1 mM and 100 µM diluted with DMEM medium, respectively. Medium with 0.1% DMSO was set as control. To begin, an initial MTT assay was conducted to evaluate the cytotoxicity of 3a~3h with a dose range of 50, 100, 200, 400, and 800 µM. Then, a more precise dose range was set to calculate the IC50 of each compound (For 3a~3e: 50, 100, 200, 400, 600, and 800 µM; for 3f~3h: 12.5, 25, 50, 100, 200, and 400 µM). Then, 5000 cells were seeded in a 96-well plate for each well and treated with respective compounds at different concentrations for 72 h following additional treatment with MTT for 2~3 h. Then, MTT was removed and 150 µL DMSO was added into each well and the absorption values were measured at 490 nm using a SpectraMAX M5plate reader (Silicon Valley, CA, USA).

[2] = tested on: LO2; assay: MTT cytotoxicity assay, LO2 normal liver cell; format: cell-based; details: mean ± SD
Protocol: as §1, §2

[3] = tested on: HK-1; assay: MTT cytotoxicity assay, HK-1; format: cell-based; details: mean ± SD
Protocol: as §1, §2

[4] = tested on: HONE1; assay: MTT cytotoxicity assay, HONE1; format: cell-based; details: mean ± SD
Protocol: as §1, §2

[5] = tested on: CNE2/CDDP; assay: MTT cytotoxicity assay, CNE2/CDDP; format: cell-based; details: cisplatin resistant cell line, mean ± SD
Protocol: as §1, §2

[6] = tested on: CNE2/CDDP cells; assay: Apoptosis assay (Annexin V-FITC/PI, FACS); format: cell-based; details: 24 h, mean ± SD; for cell apoptosis, treatment alone: CDDP 4 µg/mL or 3f 40 µM alone, three independent experiments
Protocol: Subsequently, to further verify whether the synergistic effects of compound 3f with CDDP involved cell death, an apoptosis assay was conducted. CNE2/CDDP cells were co-treated with CDDP and compound 3f, or CDDP and 3f alone for 24 h. Then, cells were harvested for staining by using an apoptosis kit, following FACS detection (Figure 3a). Then, the data from three independent experiments were analyzed and the results were shown in the form of histogram (Figure 3b).
CNE2/CDDP cells (3 × 10^5) were seeded into a 6-well plate for each well. Twenty-four hours later, medium was removed and cells were treated with different compounds for […]. Then, cells were harvested, washed with cold PBS, and stained with Annexin V-FITC and PI for 15 min in dark. Finally, samples were analyzed by flow cytometer.
Figure 3 Compound 3f (40 µM) increased apoptosis rate of CDDP (4 µg/mL) in CNE2/CDDP cells. (a), representative apoptosis detection by FACS. (b), three independent experiments of apoptosis assays were analyzed and p-value was calculated. Data are represented as mean ± SD. Bar means SD value * p < 0.05, compared with CDDP; # p < 0.05, compared with 3f.

[7] = tested on: NPC cell lines (CNE2, HONE1, and HK-1) and CDDP resistance cell line (CNE2/CDDP); assay: MTT cytotoxicity, summary over NPC cell lines and CDDP resistance cell line; format: cell-based; details: range over CNE2, HONE1, HK-1 and CNE2/CDDP, read-out: IC50, anti-proliferative effects
Protocol: as §1
(§3) Nasopharyngeal carcinoma cells (CNE2, HONE1, and CNE2/CDDP) were purchased from Shanghai Aulu Biological Technologh Co., Ltd. (Shanghai, China). HK-1 cell was purchased from Shanghai Shunran Biological Technologh Co., Ltd. CNE2, HONE1, and HK-1 were cultured in DMEM medium supplemented with 10% fetal bovine serum, 1% penicillin-streptomycin. CDDP-resistant NPC cell CNE2/CDDP was cultured in DMEM medium supplemented with CDDP to sustain its drug resistance. Cell viability was detected using the MTT assay. All the 8 derivatives were resolved with DMSO to make a storage solution at 1 M, and CDDP was resolved with phosphate buffer saline (PBS) to make a storage solution at 100 mM. […] Then, MTT was removed and 150 µL DMSO was added into each well and the absorption values were measured at 490 nm using a SpectraMAX M5plate reader (Silicon Valley, CA, USA).

[8] = tested on: CNE2/CDDP cells; assay: Synergistic inhibitory effect with CDDP, combination index (Chou-Talalay); format: cell-based; details: treated simultaneously with 3f (20, 40, 60 µM) and CDDP (5, 10, 15 µM), 72 h; CI < 1 synergism
Protocol: To determine whether compound 3f display synergistic inhibitory effects with CDDP against CNE2/CDDP cells, an MTT assay was performed. Cells were co-treated with compound 3f and CDDP or treated with CDDP or 3f alone. There are 9 groups of the combination between 3f and CDDP (Table 2). Inhibition rates were calculated, and the fraction affected (Fa) and CI (Combination Index) were generated for each group, and dose–effect curves were obtained. The CI greater than, equal to, and less than 1.0 indicate antagonistic, additive and synergistic effects, respectively.
The combination index (CI) was evaluated using Calcusyn 2.0 based on the Chou-Talalay method. Data from cell viability assays were applied to the CI calculation.
Figure 2 Synergistic inhibitory effects of compound 3f with CDDP in CNE2/CDDP cells. CNE2/CDDP cells were cultured with 3f and/or CDDP. After 72 h, 3-(4,5-dimethyl-2-thiazolyl)-2,5-diphenyl-2-H-tetrazolium bromide (MTT) was added. Two hours later, optical density (OD) was detected, and the inhibition rate was quantified. Combination Index (CI) plots were then generated using the Chou-Talay method and Calcusyn software.

[9] = tested on: CNE2/CDDP cells; assay: Combined inhibitory effect with CDDP, MTT; format: cell-based; details: co-treated with CDDP (5 µM) and compound at IC10, MTT
Protocol: Compounds regularly show synergy effects with a relatively low dosage range (IC10 to IC30). In order to preliminarily verify whether 8 compounds could increase cell sensitivity to CDDP, CNE2/CDDP cells were co-treated with CDDP (5 µM) and each compound (IC10), respectively. The cytotoxicity was evaluated by using MTT assays. […] Thus, compound 3f was selected for further experiments.
as §3, with “mM. The maximum concentrations of these 8 derivatives and CDDP used in MTT assays were set as 1 mM and 100 µM diluted with DMEM medium, respectively.” for “mM.”, “USA). […]” for “USA).”

[10] = Serum ALT, AST and Cr by ELISA; format: in vivo, BALB/C nude mice; details: groups: vehicle, CDDP 5 mg/kg, 3f 40 mg/kg, combination; ELISA at sacrifice
Protocol: (§4) Finally, to evaluate the combination inhibitory effects of compound 3f with CDDP in vivo, the subcutaneous tumor-bearing model was applied by using strain of BALB/C nude mice. In detail, 32 BALB/C nude mice without tumor were purchased and CNE2/CDDP cells (2 × 10^7) were subcutaneously injected into the right flank of each mouse to make tumor burden. Then, the 32 mice with tumor burden were divided into four groups which receive vehicle, CDDP (5 mg/kg), compound 3f (40 mg/kg), and CDDP with 3f combination treatments (5mg/kg for CDDP and 40 mg/kg for 3f), respectively, through intraperitoneal injection with two times a week for one month. […] The adverse effects of treatment were also tested by detecting serum concentration of Alanine Aminotransferase (ALT), Aspartate aminotransferase (AST), and creatinine (Cr).
Mice were sacked at the time of the animal sacrifice and blood was collected to detect ALT, AST, and Cr. Immediately, serum was separated by centrifugation at 2000 g, and ALT, Cr, and AST were determined using ELISA kits (Shanghai Enzyme-linked Biotechnology Co., Ltd., catalog: ml063179, ml058577, and ml057581) according to the manufacture instructions. The absorbance of the plates was read at 450 nm using an automated microplate reader (Bio-Tek, Winooski, VT, USA).

[11] = tested on: CNE2/CDDP cells; assay: Subcutaneous tumor-bearing model, CNE2/CDDP; format: in vivo
Protocol: as §4
The in vivo studies were conducted according to protocols approved by the Animal Ethics Committee of Guangxi University (GXU2018-019). The subcutaneous tumor-bearing model using BALB/C nude mice was applied to assess the in vivo CDDP-resistant reversal activity of compound 3f. In brief, 32 BALB/C nude mice without tumor were purchased and CNE2/CDDP cells (2 × 10^7) were subcutaneously injected into the right flank of each mouse to make tumor burden. Then, the 32 mice with tumor burden were divided into four groups which receive vehicle, CDDP (5 mg/kg), compound 3f (40 mg/kg), and CDDP with 3f combination treatments (5 mg/kg for CDDP and 40 mg/kg for 3f) (n = 8 for each group; twice a week for a month). Drugs were resolved with sterile saline–ethanol–DMSO (89:10:1, v/v/v). Sterile saline–ethanol–DMSO (89:10:1, v/v/v) was used as vehicle. Tumor volume was calculated according to the formula: V = 0.5 × L × W^2 (L: the long diameter of the tumor; W: the short diameter of the tumor). At the time of the animal sacrifice, tumors were excised and weighted.

melting point | Compound | IC50 ([1]; Homo sapiens, CNE-2, 72 h) | IC50 ([2]; Homo sapiens, L02, 72 h) | IC50 ([3]; HK-1, 72 h) | IC50 ([4]; Homo sapiens, HONE1, 72 h) | IC50 ([5]; Homo sapiens, CNE-2, 72 h) | IC50 ([1]; 72 h) | IC50 ([2]; 72 h) | IC50 ([3]; 72 h) | IC50 ([4]; 72 h) | cell apoptosis, treatment alone [6] | IC50 ([5]; 72 h) | IC50 [7] | CI (Combination Index) [8] | increase of the inhibitory effects of CDDP [9] | serum concentrations of ALT, AST, and Cr [10] | cell apoptosis, combined treatment with CDDP ([6]; CDDP (4 µg/mL) and 3f (40 µM) combined) | tumor volume and weight, combined treatment with CDDP ([11]; CDDP 5 mg/kg + 3f 40 mg/kg, intraperitoneal, twice a week for one month, compared with CDDP or 3f alone) | toxicity in vivo ([11]; dose of 40 mg/kg, reflected by mouse body weight and ALT, AST, Cr) | body weight of mice ([11]; groups: vehicle, CDDP 5 mg/kg, 3f 40 mg/kg, combination, i.p. twice a week for one month)
– | S=C1/C(=C/c2cccs2)CC[C@@H]2[C@H]3CCCN4CCC[C@@H](CN12)[C@@H]34 [3b] | 158 ± 11.3 µM | 156 ± 11.7 µM | 208 ± 9.4 µM | 125 ± 6.3 µM | 583 ± 15.3 µM | – | – | – | – | – | – | – | – | – | – | – | – | – | –
– | [NH2][Pt]([NH2])([Cl])[Cl] [CDDP, Cisplatin, reference compound] | – | – | – | – | – | 3.77 ± 0.26 µM | 6.33 ± 0.56 µM | 6.73 ± 0.42 µM | 5.23 ± 0.37 µM | 7.58 ± 0.82 | 29.5 ± 3.12 µM | – | – | – | – | – | – | – | –
– | S=C1C(=Cc2ccc(Cl)s2)CCC2C3CCCN4CCCC(CN12)C34 (stereo not drawn) [3f, 14-((5-chlorothiophen-2-yl)methylene)thiomatrine] | 35.7 ± 3.4 µM | 72 ± 5.8 µM | 51.3 ± 3.5 µM | – | 91.4 ± 8.8 µM | – | – | – | – | 9.97 ± 1.36 | – | 30 to 100 µM | less than 1 | could increase the inhibitory effects of CDDP | no significant changes | 15.53 ± 1.61 | significantly reduced tumor volume and weight | no obvious toxicity | no significant difference in body weight
239.9 to 240.6 °C | S=C1/C(=C/c2ccc(Br)s2)CC[C@@H]2[C@H]3CCCN4CCC[C@@H](CN12)[C@@H]34 [3h, 14-((5-bromothiophen-2-yl)methylene)thiomatrine] | 76.2 ± 4.5 µM | 92 ± 8.6 µM | 103 ± 7.8 µM | 89.7 ± 6.2 µM | 178 ± 15.8 µM | – | – | – | – | – | – | – | – | – | – | – | – | – | –
186.2 to 187.4 °C | Cc1ccc(/C=C2\CC[C@@H]3[C@H]4CCCN5CCC[C@@H](CN3C2=S)[C@@H]45)s1 [3d, 14-((5-methylthiophen-2-yl)methylene)thiomatrine] | 92.4 ± 6.5 µM | 138 ± 9.6 µM | 138 ± 9.4 µM | 121 ± 7.7 µM | 294 ± 20.1 µM | – | – | – | – | – | – | – | – | – | – | – | – | – | –
